# Experimental data published in ChEMBL document CHEMBL1132922, “Corticotropin releasing factor (CRF) receptor modulators: progress and opportunities for new therapeutic agents” (J Med Chem, 2000).
# Experiments:
# [1] = biological target: T1, Corticotropin-releasing factor receptor 1 (Homo sapiens, UniProt P34998); assay: Activity of peptidic agonists on corticotropin releasing factor receptor using agonist-stimulated adenylate cyclase assay; assay type: functional
# T1 sequence (P34998 whole entry): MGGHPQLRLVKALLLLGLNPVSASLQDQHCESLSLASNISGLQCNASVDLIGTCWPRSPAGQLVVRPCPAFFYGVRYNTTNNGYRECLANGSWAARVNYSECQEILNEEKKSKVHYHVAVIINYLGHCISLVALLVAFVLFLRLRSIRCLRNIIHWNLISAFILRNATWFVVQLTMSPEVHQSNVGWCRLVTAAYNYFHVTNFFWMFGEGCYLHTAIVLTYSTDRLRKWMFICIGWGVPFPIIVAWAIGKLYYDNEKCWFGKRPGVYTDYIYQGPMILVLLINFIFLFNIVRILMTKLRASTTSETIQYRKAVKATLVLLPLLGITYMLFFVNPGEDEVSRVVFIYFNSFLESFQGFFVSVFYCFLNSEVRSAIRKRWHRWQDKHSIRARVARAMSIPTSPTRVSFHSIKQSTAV
# [2] = biological target: T1, Corticotropin-releasing factor receptor 1; assay: Binding affinity of the receptor corticotropin releasing factor receptor with peptidic agonists
# [3] = biological target: T2, Corticotropin-releasing factor receptor 2 (Homo sapiens, UniProt Q13324); assay: Activity of peptidic agonists on h-CRF2-alpha receptor using agonist-stimulated adenylate cyclase assay; assay type: functional
# T2 sequence (Q13324 whole entry): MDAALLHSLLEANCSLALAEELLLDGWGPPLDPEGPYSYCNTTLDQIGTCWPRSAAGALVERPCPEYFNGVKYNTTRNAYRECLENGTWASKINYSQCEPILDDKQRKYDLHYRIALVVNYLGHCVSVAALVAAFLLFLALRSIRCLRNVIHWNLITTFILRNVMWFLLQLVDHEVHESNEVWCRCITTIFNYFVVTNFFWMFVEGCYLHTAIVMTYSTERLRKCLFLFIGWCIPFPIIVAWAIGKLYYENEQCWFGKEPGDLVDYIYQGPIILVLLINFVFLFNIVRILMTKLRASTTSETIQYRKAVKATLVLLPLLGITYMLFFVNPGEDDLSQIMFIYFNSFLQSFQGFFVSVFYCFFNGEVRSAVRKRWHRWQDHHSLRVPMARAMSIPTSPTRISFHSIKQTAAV
# [4] = biological target: T2, Corticotropin-releasing factor receptor 2; assay: Binding affinity of the receptor h-CRF2-alpha with peptidic agonists
# Rattus norvegicus = species on record: Rattus norvegicus; assay: effective concentration used to stimulate the secretion of adenocorticotropic hormone(ACTH) in primary cultures of rat pituitary cells; assay type: functional, cell-based; conditions: Pituitary gland cell
# [5] = Inhibition of ovine CRF stimulated adenylate cyclase assay in CHO-p5 cells; assay type: functional, cell-based; conditions: Ovis aries
# [6] = biological target: T3, Corticotropin releasing factor receptor (Rattus norvegicus, UniProt P47866+P35353); assay: Compound was tested for the binding affinity to rat corticotropin releasing factor receptor; assay type: protein assay
# [7] = biological target: T3, Corticotropin releasing factor receptor; assay: Compound was tested for the inhibition of binding of the radioligand, [125 I-Tyr0]-CRF to rat cerebral cortex membrane; assay type: tissue-based
# [8] = biological target: T1, Corticotropin-releasing factor receptor 1; assay: Compound was tested for the binding affinity to human corticotropin releasing factor 1 (hCRF1) receptors.
# [9] = biological target: T1, Corticotropin-releasing factor receptor 1; assay: Effective concentration to stimulate the human corticotropin releasing factor receptor using agonist-stimulated adenylate cyclase assay; assay type: functional
smiles,measurement,setting,value
CC[C@H](C)[C@H](NC(=O)[C@H](CC(=O)O)NC(=O)[C@H](CC(C)C)NC(=O)[C@H](CC(C)C)NC(=O)[C@H](CCCCN)NC(=O)[C@H](CCCN=C(N)N)NC(=O)[C@H](CC(N)=O)NC(=O)[C@H](CO)NC(=O)[C@H](Cc1cnc[nH]1)NC(=O)[C@H](C)NC(=O)[C@H](CCC(N)=O)NC(=O)[C@H](CCC(N)=O)NC(=O)[C@H](C)NC(=O)[C@H](CC(C)C)NC(=O)[C@H](CCC(N)=O)NC(=O)[C@H](CC(=O)O)NC(=O)[C@H](C)NC(=O)[C@H](CCCCN)NC(=O)[C@@H](NC(=O)[C@H](CCSC)NC(=O)[C@H](CCC(=O)O)NC(=O)[C@H](CC(C)C)NC(=O)[C@@H](NC(=O)[C@H](CCC(=O)O)NC(=O)[C@H](CCCN=C(N)N)NC(=O)[C@H](CC(C)C)NC(=O)[C@H](CC(C)C)NC(=O)[C@H](Cc1cnc[nH]1)NC(=O)[C@H](Cc1ccccc1)NC(=O)[C@@H](NC(=O)[C@H](CC(C)C)NC(=O)[C@H](CC(=O)O)NC(=O)[C@H](CC(C)C)NC(=O)[C@H](CO)NC(=O)[C@@H](NC(=O)[C@@H]1CCCN1C(=O)[C@@H]1CCCN1C(=O)[C@H](CCC(=O)O)NC(=O)[C@H](CCC(N)=O)NC(=O)[C@@H](N)CO)[C@@H](C)CC)[C@@H](C)O)C(C)C)[C@@H](C)O)C(=O)N[C@@H](C)C(N)=O,EC50,[1],9.7 nM
same,Ki,[2],7.16 nM
same,EC50,[3],61.9 nM
same,Ki,[4],86.4 nM
CC[C@H](C)[C@H](NC(=O)[C@@H](NC(=O)[C@H](CCC(=O)O)NC(=O)[C@H](CCSC)NC(=O)[C@H](CC(C)C)NC(=O)[C@H](CCCCN)NC(=O)[C@H](CCCN=C(N)N)NC(=O)[C@H](CC(N)=O)NC(=O)[C@H](CO)NC(=O)[C@H](Cc1c[nH]cn1)NC(=O)[C@H](C)NC(=O)[C@H](CCC(N)=O)NC(=O)[C@H](CCC(N)=O)NC(=O)[C@H](C)NC(=O)[C@H](CC(C)C)NC(=O)[C@H](CCC(N)=O)NC(=O)[C@H](CCC(=O)O)NC(=O)[C@H](C)NC(=O)[C@H](CCCN=C(N)N)NC(=O)[C@H](C)NC(=O)[C@H](CCSC)NC(=O)[C@H](CCC(=O)O)NC(=O)[C@H](CC(C)C)NC(=O)[C@@H](NC(=O)[C@H](CCC(=O)O)NC(=O)[C@H](CCCN=C(N)N)NC(=O)[C@H](CC(C)C)NC(=O)[C@H](CC(C)C)NC(=O)[C@H](Cc1c[nH]cn1)NC(=O)[C@H](Cc1ccccc1)NC(=O)[C@@H](NC(=O)[C@H](CC(C)C)NC(=O)[C@H](CC(=O)O)NC(=O)[C@H](CC(C)C)NC(=O)[C@H](CO)NC(=O)[C@@H](NC(=O)[C@@H]1CCCN1C(=O)[C@@H]1CCCN1C(=O)[C@H](CCC(=O)O)NC(=O)[C@H](CCC(=O)O)NC(=O)[C@@H](N)CO)[C@@H](C)CC)[C@@H](C)O)C(C)C)[C@@H](C)CC)C(N)=O,EC50,Rattus norvegicus,0.2 nM
CCCCN(CC)c1cc(C)nc2c(-c3ccc(Cl)cc3Cl)c(C)nn12,IC50,[5],357 nM
CCc1nc2c(c(C)nn2-c2ccc(C(C)C)cc2Br)n1Cc1ccccc1,Ki,[6],4 nM
CCN(c1nc(C)cc(N2CCC=C(c3ccccc3C)C2)n1)c1ccc(C(C)C)cc1SC,IC50,[7],10 nM
CCC(CC)n1nnc2c(N3CCc4cc(Cl)cc(Cl)c43)nc(C)cc21,Ki,[8],1.3 nM
CCCN(CCOC)c1cc(C)nc2c(-c3ccc(OC)c(OC)c3)c(C)nn12,Ki,[8],13.7 nM
CCN(c1nc(C)cc(N2CC=C(c3cccc(F)c3)CC2)n1)c1ccc(C(C)C)cc1SC,IC50,[7],12.7 nM
CCCN(c1nc(-c2ccc(Cl)cc2Cl)c(C)s1)c1cccc2ncccc12,IC50,[7],80 nM
CC[C@H](C)[C@H](NC(=O)[C@@H](NC(=O)[C@H](CC(=O)O)NC(=O)[C@H](CC(C)C)NC(=O)[C@H](CC(C)C)NC(=O)[C@H](CC(C)C)NC(=O)[C@H](CCCNC(=N)N)NC(=O)[C@H](CC(N)=O)NC(=O)[C@H](CC(N)=O)NC(=O)[C@H](C)NC(=O)[C@H](C)NC(=O)[C@H](CCC(N)=O)NC(=O)[C@H](CCC(N)=O)NC(=O)[C@H](CCCCN)NC(=O)[C@H](CCC(=O)O)NC(=O)[C@H](CCCCN)NC(=O)[C@H](CCC(=O)O)NC(=O)[C@H](CCC(N)=O)NC(=O)[C@H](CCCCN)NC(=O)[C@H](CCC(=O)O)NC(=O)[C@@H](NC(=O)[C@H](CCC(=O)O)NC(=O)[C@@H](NC(=O)[C@H](CCSC)NC(=O)[C@H](CCCCN)NC(=O)[C@H](CCCNC(=N)N)NC(=O)[C@H](CC(C)C)NC(=O)[C@H](CC(C)C)NC(=O)[C@H](Cc1c[nH]cn1)NC(=O)[C@H](N)Cc1ccccc1)[C@@H](C)CC)[C@@H](C)CC)[C@@H](C)O)C(N)=O,EC50,[9],3760 nM
